Experimental data: patent US9809578B2, “Pyrazolyl urea, thiourea, guanidine and cyanoguanidine compounds as trkA kinase inhibitors” (Array BioPharma Inc., priority 2012, dated 2017)

Key:
Assay type in all cases: biochemical
Details in all cases: 10 μM, ATP near Km
[1] = target: T1, Tie2 (Homo sapiens, UniProt Q02763); assay: KinaseProfiler Tie2
T1 construct: purchased Millipore, Inc. (KinaseProfiler service)
From the text: (§1) The compound was run in duplicate at a concentration of ATP near the Km for each individual kinase according to Millipore's specifications.

[2] = target: T2, NEK3 (Homo sapiens, UniProt P51956); assay: KinaseProfiler NEK3
T2 construct: purchased Millipore, Inc. (KinaseProfiler service)
From the text: as §1

[3] = target: T3, Rsk3 (Homo sapiens, UniProt Q15349); assay: KinaseProfiler Rsk3
T3 construct: purchased Millipore, Inc. (KinaseProfiler service)
From the text: as §1

[4] = target: T4, TAO2 (Homo sapiens, UniProt Q9UL54); assay: KinaseProfiler TAO2
T4 construct: purchased Millipore, Inc. (KinaseProfiler service)
From the text: as §1

[5] = target: T5, ERK1 (Homo sapiens, UniProt P27361); assay: KinaseProfiler ERK1
T5 construct: purchased Millipore, Inc. (KinaseProfiler service)
T5 sequence (P27361 whole entry): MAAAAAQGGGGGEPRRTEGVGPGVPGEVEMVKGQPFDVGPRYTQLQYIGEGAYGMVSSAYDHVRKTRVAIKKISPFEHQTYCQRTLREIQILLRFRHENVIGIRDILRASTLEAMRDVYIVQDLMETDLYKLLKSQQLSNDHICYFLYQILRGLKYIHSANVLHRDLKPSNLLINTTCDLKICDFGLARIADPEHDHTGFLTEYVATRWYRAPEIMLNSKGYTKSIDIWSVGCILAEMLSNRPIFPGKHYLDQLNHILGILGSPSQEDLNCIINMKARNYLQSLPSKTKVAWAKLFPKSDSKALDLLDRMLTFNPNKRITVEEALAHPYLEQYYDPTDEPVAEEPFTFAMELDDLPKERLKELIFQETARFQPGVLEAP
From the text: as §1

[6] = target: T6, MKK4_m (Mus musculus, UniProt P47809); assay: KinaseProfiler MKK4_m
T6 construct: purchased Millipore, Inc. (KinaseProfiler service)
From the text: as §1

[7] = target: T7, SGK3 (Homo sapiens, UniProt Q96BR1); assay: KinaseProfiler SGK3
T7 construct: purchased Millipore, Inc. (KinaseProfiler service)
From the text: as §1

[8] = target: T8, NEK6 (Homo sapiens, UniProt Q9HC98); assay: KinaseProfiler NEK6
T8 construct: purchased Millipore, Inc. (KinaseProfiler service)
From the text: as §1

[9] = target: T9, TSSK2 (Homo sapiens, UniProt Q96PF2); assay: KinaseProfiler TSSK2
T9 construct: purchased Millipore, Inc. (KinaseProfiler service)
T9 sequence (Q96PF2 whole entry): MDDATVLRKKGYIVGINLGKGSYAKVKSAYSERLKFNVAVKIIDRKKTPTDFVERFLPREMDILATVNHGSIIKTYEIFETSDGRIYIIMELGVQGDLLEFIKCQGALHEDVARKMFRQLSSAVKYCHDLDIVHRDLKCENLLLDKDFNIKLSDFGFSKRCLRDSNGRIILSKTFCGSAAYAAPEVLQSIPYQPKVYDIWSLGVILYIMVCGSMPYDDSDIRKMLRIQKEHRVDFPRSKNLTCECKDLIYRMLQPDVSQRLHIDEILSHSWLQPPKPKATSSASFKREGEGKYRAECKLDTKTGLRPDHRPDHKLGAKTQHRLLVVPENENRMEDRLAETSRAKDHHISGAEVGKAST
From the text: as §1

[10] = target: T10, HIPK1 (Homo sapiens, UniProt Q86Z02); assay: KinaseProfiler HIPK1
T10 construct: purchased Millipore, Inc. (KinaseProfiler service)
From the text: as §1

[11] = target: T11, BrSK1 (Homo sapiens, UniProt Q8TDC3); assay: KinaseProfiler BrSK1
T11 construct: purchased Millipore (KinaseProfiler service)
From the text: as §1

[12] = target: T12, CAMK2g (Homo sapiens, UniProt Q13555); assay: KinaseProfiler CAMK2g
T12 construct: purchased Millipore (KinaseProfiler service)
From the text: as §1

[13] = target: T13, MKNK2 (Homo sapiens, UniProt Q9HBH9); assay: KinaseProfiler MKNK2
T13 construct: purchased Millipore, Inc. (KinaseProfiler service)
From the text: as §1

[14] = target: T14, PKCgamma (Homo sapiens, UniProt P05129); assay: KinaseProfiler PKCgamma
T14 construct: purchased Millipore, Inc. (KinaseProfiler service)
From the text: as §1

[15] = target: T15, Ret (Homo sapiens, UniProt P07949); assay: KinaseProfiler Ret
T15 construct: purchased Millipore, Inc. (KinaseProfiler service)
From the text: as §1

[16] = target: T16, Mer (Homo sapiens, UniProt Q12866); assay: KinaseProfiler Mer
T16 construct: purchased Millipore, Inc. (KinaseProfiler service)
From the text: as §1

[17] = target: T17, EphA3 (Homo sapiens, UniProt P29320); assay: KinaseProfiler EphA3
T17 construct: purchased Millipore, Inc. (KinaseProfiler service)
From the text: as §1

[18] = target: T18, MRCKbeta (Homo sapiens, UniProt Q9Y5S2); assay: KinaseProfiler MRCKbeta
T18 construct: purchased Millipore, Inc. (KinaseProfiler service)
From the text: as §1

[19] = target: T19, SGK2 (Homo sapiens, UniProt Q9HBY8); assay: KinaseProfiler SGK2
T19 construct: purchased Millipore, Inc. (KinaseProfiler service)
From the text: as §1

[20] = target: T20, MYLK (Homo sapiens, UniProt Q15746); assay: KinaseProfiler MYLK
T20 construct: purchased Millipore, Inc. (KinaseProfiler service)
From the text: as §1

[21] = target: T21, TBK1 (Homo sapiens, UniProt Q9UHD2); assay: KinaseProfiler TBK1
T21 construct: purchased Millipore, Inc. (KinaseProfiler service)
From the text: as §1

[22] = target: T22, PKAC-alpha (Homo sapiens, UniProt P17612); assay: KinaseProfiler PKAC-alpha
T22 construct: purchased Millipore, Inc. (KinaseProfiler service)
From the text: as §1

[23] = target: T23, PAK4 (Homo sapiens, UniProt O96013); assay: KinaseProfiler PAK4
T23 construct: purchased Millipore, Inc. (KinaseProfiler service)
From the text: as §1

[24] = target: T24, SRC (Homo sapiens, UniProt P12931); assay: KinaseProfiler SRC
T24 construct: purchased Millipore, Inc. (KinaseProfiler service)
From the text: as §1

[25] = target: T25, EphA7 (Homo sapiens, UniProt Q15375); assay: KinaseProfiler EphA7
T25 construct: purchased Millipore, Inc. (KinaseProfiler service)
From the text: as §1

[26] = target: T26, PKCdelta (Homo sapiens, UniProt Q05655); assay: KinaseProfiler PKCdelta
T26 construct: purchased Millipore, Inc. (KinaseProfiler service)
From the text: as §1

[27] = target: T27, JNK2alpha2 (Homo sapiens, UniProt P45984); assay: KinaseProfiler JNK2alpha2
T27 construct: purchased Millipore, Inc. (KinaseProfiler service)
From the text: as §1

[28] = target: T28, p38beta (Homo sapiens, UniProt Q15759); assay: KinaseProfiler p38beta
T28 construct: purchased Millipore, Inc. (KinaseProfiler service)
From the text: as §1

[29] = target: T29, AKT3 (Homo sapiens, UniProt Q9Y243); assay: KinaseProfiler AKT3
T29 construct: purchased Millipore (KinaseProfiler service)
From the text: as §1

[30] = target: T30, PKCtheta (Homo sapiens, UniProt Q04759); assay: KinaseProfiler PKCtheta
T30 construct: purchased Millipore, Inc. (KinaseProfiler service)
T30 sequence (Q04759 whole entry): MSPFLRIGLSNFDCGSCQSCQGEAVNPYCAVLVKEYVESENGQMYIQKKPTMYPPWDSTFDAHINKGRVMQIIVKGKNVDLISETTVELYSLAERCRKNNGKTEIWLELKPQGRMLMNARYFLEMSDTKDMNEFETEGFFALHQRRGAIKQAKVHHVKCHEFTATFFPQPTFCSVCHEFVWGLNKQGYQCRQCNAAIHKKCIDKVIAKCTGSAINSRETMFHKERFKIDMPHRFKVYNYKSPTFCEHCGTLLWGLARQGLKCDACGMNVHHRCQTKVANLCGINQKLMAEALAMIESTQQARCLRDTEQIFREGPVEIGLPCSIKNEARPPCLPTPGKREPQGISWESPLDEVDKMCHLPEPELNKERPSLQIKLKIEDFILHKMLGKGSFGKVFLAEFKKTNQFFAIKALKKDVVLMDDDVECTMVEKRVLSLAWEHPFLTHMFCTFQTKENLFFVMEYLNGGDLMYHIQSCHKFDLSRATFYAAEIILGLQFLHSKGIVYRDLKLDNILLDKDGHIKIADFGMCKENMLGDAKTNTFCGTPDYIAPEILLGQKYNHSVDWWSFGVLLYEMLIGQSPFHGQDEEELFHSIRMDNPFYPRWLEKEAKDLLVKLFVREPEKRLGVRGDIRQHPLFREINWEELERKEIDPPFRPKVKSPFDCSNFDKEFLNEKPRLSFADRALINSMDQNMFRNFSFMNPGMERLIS
From the text: as §1

[31] = target: T31, Plk3 (Homo sapiens, UniProt Q9H4B4); assay: KinaseProfiler Plk3
T31 construct: purchased Millipore, Inc. (KinaseProfiler service)
T31 sequence (Q9H4B4 whole entry): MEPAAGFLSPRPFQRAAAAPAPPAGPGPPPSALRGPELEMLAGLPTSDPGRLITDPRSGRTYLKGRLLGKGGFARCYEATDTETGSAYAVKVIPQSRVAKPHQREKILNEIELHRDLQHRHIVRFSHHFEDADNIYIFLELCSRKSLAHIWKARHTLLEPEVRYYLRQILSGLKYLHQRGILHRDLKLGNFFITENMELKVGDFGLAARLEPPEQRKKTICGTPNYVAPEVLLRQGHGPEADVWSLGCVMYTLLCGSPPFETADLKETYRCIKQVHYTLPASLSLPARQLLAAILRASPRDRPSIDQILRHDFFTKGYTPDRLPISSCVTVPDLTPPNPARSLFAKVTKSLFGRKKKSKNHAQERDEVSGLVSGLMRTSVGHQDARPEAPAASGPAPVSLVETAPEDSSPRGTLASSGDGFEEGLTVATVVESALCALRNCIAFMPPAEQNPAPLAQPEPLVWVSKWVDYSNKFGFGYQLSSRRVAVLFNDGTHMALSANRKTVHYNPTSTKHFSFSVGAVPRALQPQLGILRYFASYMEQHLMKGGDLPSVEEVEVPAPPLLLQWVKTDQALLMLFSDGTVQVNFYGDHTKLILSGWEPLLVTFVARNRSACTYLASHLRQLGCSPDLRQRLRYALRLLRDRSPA
From the text: as §1

[32] = target: T32, EphA1 (Homo sapiens, UniProt P21709); assay: KinaseProfiler EphA1
T32 construct: purchased Millipore, Inc. (KinaseProfiler service)
From the text: as §1

[33] = target: T33, JNK3 (Homo sapiens, UniProt P53779); assay: KinaseProfiler JNK3
T33 construct: purchased Millipore, Inc. (KinaseProfiler service)
From the text: as §1

[34] = target: T34, ULK2 (Homo sapiens, UniProt Q8IYT8); assay: KinaseProfiler ULK2
T34 construct: purchased Millipore, Inc. (KinaseProfiler service)
From the text: as §1

[35] = target: T35, GRK6 (Homo sapiens, UniProt P43250); assay: KinaseProfiler GRK6
T35 construct: purchased Millipore, Inc. (KinaseProfiler service)
From the text: as §1

[36] = target: T36, Ros (Homo sapiens, UniProt P08922); assay: KinaseProfiler Ros
T36 construct: purchased Millipore, Inc. (KinaseProfiler service)
T36 sequence (P08922 28-2347): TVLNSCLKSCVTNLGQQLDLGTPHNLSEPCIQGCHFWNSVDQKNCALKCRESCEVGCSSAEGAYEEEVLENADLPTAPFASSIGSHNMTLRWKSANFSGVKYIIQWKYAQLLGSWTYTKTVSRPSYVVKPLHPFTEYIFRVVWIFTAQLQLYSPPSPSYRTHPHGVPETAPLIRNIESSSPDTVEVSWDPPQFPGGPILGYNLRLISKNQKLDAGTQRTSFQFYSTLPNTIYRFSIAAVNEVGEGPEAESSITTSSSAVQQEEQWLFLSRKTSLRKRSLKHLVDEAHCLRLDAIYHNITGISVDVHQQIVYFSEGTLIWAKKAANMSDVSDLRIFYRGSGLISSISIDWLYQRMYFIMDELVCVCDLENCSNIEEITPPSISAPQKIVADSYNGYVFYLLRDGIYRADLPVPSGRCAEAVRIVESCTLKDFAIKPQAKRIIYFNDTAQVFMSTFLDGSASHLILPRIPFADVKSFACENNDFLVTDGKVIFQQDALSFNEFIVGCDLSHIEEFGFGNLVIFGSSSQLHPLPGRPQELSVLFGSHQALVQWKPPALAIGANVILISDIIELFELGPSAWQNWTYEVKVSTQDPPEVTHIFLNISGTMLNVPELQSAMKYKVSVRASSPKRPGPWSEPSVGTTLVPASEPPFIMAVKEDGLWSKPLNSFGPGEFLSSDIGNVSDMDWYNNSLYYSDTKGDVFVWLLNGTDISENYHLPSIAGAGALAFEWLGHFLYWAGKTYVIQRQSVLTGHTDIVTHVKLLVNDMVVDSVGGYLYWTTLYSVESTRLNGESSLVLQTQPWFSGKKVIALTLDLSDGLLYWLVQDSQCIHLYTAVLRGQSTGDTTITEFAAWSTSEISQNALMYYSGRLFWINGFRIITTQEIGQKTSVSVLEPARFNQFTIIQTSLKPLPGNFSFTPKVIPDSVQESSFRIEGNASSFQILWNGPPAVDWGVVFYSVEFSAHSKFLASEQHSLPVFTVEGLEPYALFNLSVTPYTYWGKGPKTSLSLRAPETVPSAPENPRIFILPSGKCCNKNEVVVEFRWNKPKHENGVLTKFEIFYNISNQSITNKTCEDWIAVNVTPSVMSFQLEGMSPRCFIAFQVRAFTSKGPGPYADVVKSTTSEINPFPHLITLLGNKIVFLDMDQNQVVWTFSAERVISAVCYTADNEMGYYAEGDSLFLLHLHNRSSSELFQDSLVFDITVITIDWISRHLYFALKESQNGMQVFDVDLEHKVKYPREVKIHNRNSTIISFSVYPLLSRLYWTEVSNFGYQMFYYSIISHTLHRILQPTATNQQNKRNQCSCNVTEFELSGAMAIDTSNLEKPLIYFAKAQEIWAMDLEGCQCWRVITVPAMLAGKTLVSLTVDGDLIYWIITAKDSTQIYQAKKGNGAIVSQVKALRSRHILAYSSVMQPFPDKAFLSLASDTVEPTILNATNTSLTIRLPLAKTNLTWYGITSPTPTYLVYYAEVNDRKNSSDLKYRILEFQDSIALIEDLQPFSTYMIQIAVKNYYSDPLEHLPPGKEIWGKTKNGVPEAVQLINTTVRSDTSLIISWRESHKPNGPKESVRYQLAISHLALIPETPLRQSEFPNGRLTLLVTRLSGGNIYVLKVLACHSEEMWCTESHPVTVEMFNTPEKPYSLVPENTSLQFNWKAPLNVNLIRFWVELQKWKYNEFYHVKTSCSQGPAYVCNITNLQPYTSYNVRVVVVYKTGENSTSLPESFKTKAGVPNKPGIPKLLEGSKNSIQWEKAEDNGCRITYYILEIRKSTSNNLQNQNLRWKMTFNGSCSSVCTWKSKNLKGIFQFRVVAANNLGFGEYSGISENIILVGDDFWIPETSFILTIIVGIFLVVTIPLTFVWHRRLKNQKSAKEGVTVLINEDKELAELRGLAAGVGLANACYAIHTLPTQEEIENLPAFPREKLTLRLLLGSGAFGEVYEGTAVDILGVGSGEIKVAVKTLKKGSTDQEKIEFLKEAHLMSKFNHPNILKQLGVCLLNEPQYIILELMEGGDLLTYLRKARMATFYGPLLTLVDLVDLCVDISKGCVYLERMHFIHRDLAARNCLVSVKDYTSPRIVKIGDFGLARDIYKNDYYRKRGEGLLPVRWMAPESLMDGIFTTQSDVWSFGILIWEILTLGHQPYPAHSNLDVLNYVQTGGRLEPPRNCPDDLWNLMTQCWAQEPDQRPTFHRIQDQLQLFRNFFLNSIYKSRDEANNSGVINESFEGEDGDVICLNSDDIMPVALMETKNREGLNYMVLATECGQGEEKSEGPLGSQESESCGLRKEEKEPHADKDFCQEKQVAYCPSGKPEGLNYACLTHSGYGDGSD
From the text: as §1

[37] = target: T37, CDK5/p25 (Homo sapiens, UniProt Q00535); assay: KinaseProfiler CDK5/p25
T37 construct: purchased Millipore, Inc. (KinaseProfiler service)
T37 sequence (Q00535 whole entry): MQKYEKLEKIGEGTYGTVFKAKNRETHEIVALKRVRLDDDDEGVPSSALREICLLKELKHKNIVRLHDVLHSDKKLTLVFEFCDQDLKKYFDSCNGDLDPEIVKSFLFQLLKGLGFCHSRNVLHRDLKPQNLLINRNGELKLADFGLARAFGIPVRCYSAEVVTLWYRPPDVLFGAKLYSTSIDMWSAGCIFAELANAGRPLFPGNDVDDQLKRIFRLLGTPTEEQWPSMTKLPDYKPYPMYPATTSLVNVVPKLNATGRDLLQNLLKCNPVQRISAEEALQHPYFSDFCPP
T37 sequence (Q15078 99-307 partner limits assumed): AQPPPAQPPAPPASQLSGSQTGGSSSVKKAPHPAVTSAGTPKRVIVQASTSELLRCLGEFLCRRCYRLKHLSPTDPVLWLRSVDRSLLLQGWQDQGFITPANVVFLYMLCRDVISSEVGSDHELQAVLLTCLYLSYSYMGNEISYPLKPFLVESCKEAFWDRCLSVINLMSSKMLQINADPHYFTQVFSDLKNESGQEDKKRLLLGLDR
From the text: as §1

[38] = target: T38, EphA8 (Homo sapiens, UniProt P29322); assay: KinaseProfiler EphA8
T38 construct: purchased Millipore, Inc. (KinaseProfiler service)
From the text: as §1

[39] = target: T39, AKT1 (Homo sapiens, UniProt P31749); assay: KinaseProfiler AKT1
T39 construct: purchased Millipore (KinaseProfiler service)
From the text: as §1

[40] = target: T40, Rsk4 (Homo sapiens, UniProt Q9UK32); assay: KinaseProfiler Rsk4
T40 construct: purchased Millipore, Inc. (KinaseProfiler service)
From the text: as §1

[41] = target: T41, JAK3 (Homo sapiens, UniProt P52333); assay: KinaseProfiler JAK3
T41 construct: purchased Millipore, Inc. (KinaseProfiler service)
From the text: as §1

[42] = target: T42, PrKX (Homo sapiens, UniProt P51817); assay: KinaseProfiler PrKX
T42 construct: purchased Millipore, Inc. (KinaseProfiler service)
From the text: as §1

[43] = target: T43, GRK7 (Homo sapiens, UniProt Q8WTQ7); assay: KinaseProfiler GRK7
T43 construct: purchased Millipore, Inc. (KinaseProfiler service)
From the text: as §1

Cc1c(-c2cnn(C)c2)nn(-c2ccccc2)c1NC(=O)Nc1cc(C(F)(F)F)nn1-c1ccccc1 [Example 3, 1-(1′,4-dimethyl-1-phenyl-1H,1′H-[3,4′-bipyrazol]-5-yl)-3-(1-phenyl-3-(trifluoromethyl)-1H-pyrazol-5-yl)urea]
Avg POC [1]: 121.5 POC | Avg POC [2]: 105.5 POC | Avg POC [3]: 104.5 POC | Avg POC [4]: 108 POC | Avg POC [5]: 111.5 POC | Avg POC [6]: 132.5 POC | Avg POC [7]: 133 POC | Avg POC [8]: 125 POC | Avg POC [9]: 132.5 POC | Avg POC [10]: 115.5 POC | Avg POC [11]: 127 POC | Avg POC [12]: 112 POC | Avg POC [13]: 99 POC | Avg POC [14]: 100 POC | Avg POC [15]: 89.5 POC | Avg POC [16]: 104.5 POC | Avg POC [17]: 128.5 POC | Avg POC [18]: 121.5 POC | Avg POC [19]: 159.5 POC | Avg POC [20]: 122 POC | Avg POC [21]: 103 POC | Avg POC [22]: 136.5 POC | Avg POC [23]: 103 POC | Avg POC [24]: 102.5 POC | Avg POC [25]: 91 POC | Avg POC [26]: 98.5 POC | Avg POC [27]: 99.5 POC | Avg POC [28]: 102 POC | Avg POC [29]: 99 POC | Avg POC [30]: 113.5 POC | Avg POC [31]: 115 POC | Avg POC [32]: 93.5 POC | Avg POC [33]: 124.5 POC | Avg POC [34]: 98 POC | Avg POC [35]: 105 POC | Avg POC [36]: 97 POC | Avg POC [37]: 108.5 POC | Avg POC [38]: 122 POC | Avg POC [39]: 103.5 POC | Avg POC [40]: 99 POC | Avg POC [41]: 117.5 POC | Avg POC [42]: 188 POC | Avg POC [43]: 104.5 POC
